The subject of experiment [1] is bone marrow stromal cells. Nature of the experiment: Real-time RT-PCR of hematopoietic cytokine mRNA. Format: cell-based, mouse. The text has this: Bone marrow mononuclear cells (BMNCs) were isolated from femurs and tibias of 8 to 12-week-old male C57BL/6 mice by a previously described protocol [Kroeger K, Collins M, Ugozzoli (2009) The preparation of primary hematopoietic cell cultures from murine bone marrow for electroporation. J. Vis. Exp. 23: pii:1026. doi:10.3791/1026] and were separated from dead cells and red blood cells (RBCs) by Histopaque ([…]) (Sigma-Aldrich Chemical, St. Louis, Mo., USA) density gradient centrifugation. Thereafter, the cells were cultured in Iscove's modified Dulbecco's media (IMDM) with 15% heat inactivated fetal bovine serum (FBS), 1% bovine serum albumin (BSA), 100 units/ml penicillin and 100 μg/ml streptomycin at 37° C. in 5% CO2 humidified air. The separated blood was cultured as described previously [Oswald J, et al. (2004). Mesenchymal stem cells can be differentiated into endothelial cells in vitro. Stem Cells, 22: 377-384.] to obtain bone marrow stromal cells in α-minimum essential medium (MEM) with 20% heat inactivated FBS, 100 units/ml penicillin and 100 μg/ml streptomycin at 37° C. in 5% CO2 humidified air.
To confirm whether QGR regulates the expression of hematopoietic cytokines in bone marrow stromal cells, real-time RT-PCR was performed. Bone marrow stromal cells (3×10^5 cells/plate) were incubated with either mouse rIL-3 (100 units/ml) plus rSCF (5 units/ml) plus rEpo (3 units/ml) or QGR (50, 100 or 200 μM/ml) in 60 mm-diameter cell culture plates. The cells were harvested after 4 hr of incubation and washed with PBS and total RNA were extracted using RNA extraction kit (Applied Biosystems, Carlsbad, Calif., USA). First strand synthesis of cDNA was carried out with 1 μg of total RNA using cDNA synthesis kit (Applied Biosystems, Foster City, Calif., USA). Real-time PCR using TaqMan probe PCR master mix kit (Applied Biosystems) was performed according to the manufacturer's instruction using a model 7500 Real-Time PCR System (Applied Biosystems). GAPDH mRNA was utilized as an internal standard to normalize target transcript expression. The relative ratios of SCF, GM-CSF, or Epo mRNA to GAPDH mRNA which can be used to quantify precisely the levels of each mRNA expression, were calculated with the standard curves.
In general terms: Quantitative PCR measures a nucleic acid by following its amplification.

Experiment [2] concerns bone marrow failure mouse induced by busulphan (BU). Nature of the experiment: Peripheral blood analysis in bone marrow failure model induced by busulphan (BU). It counts as in vivo, Balb/c mice. The text has this: 5-week-old female Balb/c mice were purchased from Orient Bio Inc. (Seongnam-si, Gyeonggi-do, Korea). All protocols of animal experiments were approved by Institutional Animal Care and Use Committee of Laboratory Animal Research Center, Chungbuk National University. The mice were fed by Teklad Global 18% protein rodent diet (Harlan, Iowa, USA) and had free access to drinking water. The mice were housed and bred under specific pathogen-free conditions, and were went through environmental acclimatization for one week before used in the animal experiments and were separated into three groups (n=70/group).
(§1) Bone marrow failure model induced by administering busulphan (BU) was designed according to the procedures previously described by Molyneux et al (Cell Biol Toxicol 27, 13-40, 2011) and the scheme is shown in FIG. 8. BU (Sigma chemicals, Poole, Dorset, UK) was dissolved in acetone to a final concentration of 18.8 mg/ml, diluted five-fold with distilled water, and was intraperitoneally administered three times for 5 days with the dose of 0.2 ml BU solution per mouse. Equal amount of five-fold diluted acetone solution without BU was administered to vehicle control group. QGR was dissolved in dimethylsulfoxide and diluted with distilled water to a final concentration of 1.25%. Mice were orally administered every two days with QGR (0.25 mg/mouse) for 63 days. Seven or eight mice were sacrificed on days of 1, 5, 10, 16, 25, 40, 49, and 63 after BU administration and were investigated to confirm the effect of QGR to recover bone marrow failure.
In order to evaluate the activity of QGR to recover anemia animal model induced by BU administration, peripheral blood was collected during an autopsy and were investigated. The collected peripheral blood was stored in the bottle containing EDTA to prevent a blood clotting, and the numbers of erythrocytes, leukocytes, and platelets, hematocrit (HCT) level, mean corpuscular volume (MCV), and mean corpuscular hemoglobin (MCH) were measured.

The test system is the same in experiment [3]. As to the kind of experiment: Colony-forming unit-fibroblast (CFU-F) measurement from MSPCs in BU bone marrow failure model. Format: in vivo, Balb/c mice. As to conditions: decreased from day 10 in positive control group; p<0.05. The procedure: as §1, with “Seven or eight mice were sacrificed on days of 1, 5, 10, 16, 25, 40, 49, and 63 after BU administration and were investigated to confirm the effect of QGR to recover bone marrow failure.” left out
CFU-F, a progenitor cell colony differentiated from MSPCs is in the stage prior to being finally matured into mesenchymal cells such as osteoblast, vascular endothelial cells acting as hematopoietic stem cell niche. In order to investigate the effect of QGR on the formation and differentiation of mesenchymal stem cells, MSPCs were isolated and the number of CFU-F colonies of the respective groups was measured and compared to each other. […] All visible colonies were counted.

The test system of experiment [4] is lipopolysaccharide (LPS)-stimulated RAW 264.7 macrophage cells. As to conditions: cited from earlier work.
[5] abbreviates: 100 and 200 μM, vs rIL-3+rSCF+rEpo.
The mark [6] stands for this setting: QGR 0.25 mg/mouse orally after BU.

As to `CC1OC(Oc2c(-c3ccc(O)c(O)c3)oc3cc(O)cc(O)c3c2=O)C(OC(=O)c2cc(O)c(O)c(O)c2)C(O)C1O` (stereo not drawn) [QGR, quercetin 3-O-β-(2″-galloyl)-rhamnopyranoside], in experiment [1] (50, 100 or 200 μM/ml, 4 hrs, dose-dependent), the “mRNA expression levels of SCF, GM-CSF and Epo” value is “increased”. In addition, in experiment [1] (setting [5]), the “Epo mRNA compared to the positive control” value is listed as “significantly increased” and the “GM-CSF mRNA compared to the positive control” value is given as “significantly increased”. Further, the “SCF mRNA compared to the positive control” value in experiment [1] (all concentrations, vs rIL-3+rSCF+rEpo) is given as “significantly increased”. The “mean corpuscular volume (MCV)” value in experiment [2] (BU group vs BU+QGR group) was “BU administration group are significantly lower than those of BU+QGR administration group”. In experiment [2] (setting [6]), the “leukocyte numbers vs normal control group” value is given as “slightly lower”; the “recovery effect of leukocyte level, onset” value is ≥ 10 days; the “recovery effect on erythrocyte level, onset” value is ≥ 5 days; the “recovery of reduced platelet numbers, onset” value is ≥ 16 days. In addition, the “erythrocyte level vs normal control group” value in experiment [2] (QGR 0.25 mg/mouse orally every two days after BU) is given as “slightly lower”. In addition, the “erythrocyte level vs positive control group (BU + vehicle)” value in experiment [2] (QGR 0.25 mg/mouse orally every two days, days 5, 10, 16, 25, 49, 63) was “significantly higher”. In addition, in experiment [2] (day 10 up to day 63), the “leukocyte numbers vs positive control group (BU + vehicle)” value is on record as “higher level”. The “hemoglobin (HGB) level” value in experiment [2] (pattern similar to erythrocytes) is “recovered the anemia”. Besides, the platelet numbers result in experiment [2] (vs positive control group (BU + vehicle), significant differences continuously) was “steeply recovered”. Further, in experiment [3], the “number of CFU-F” value is recorded as “recovered significantly”. The nitric oxide production result in experiment [4] is reported as “inhibiting”.

Source of the values: US9289444B2, “Composition for promoting hematogenesis containing quercetin 3-O-β-(2″-galloyl)-rhamnopyranoside as active ingredient” (Chungbuk National University Industry Academic Cooperation …, priority 2011, dated 2016).
